Laboratory results as given in patent publication US20210213037A1, “METHODS FOR TREATING FIBROSIS” (CHILDREN'S HOSPITAL MEDICAL CENTER, priority 2018, published 2021).

What was measured:
[1] = system: idiopathic pulmonary fibrosis; conditions: cited from earlier work
TGFα mice = test: TGFα-induced pulmonary fibrosis mouse model, therapeutic intervention in established fibrosis; format: in vivo; conditions: vs vehicle
Excerpt: Mouse model of TGFα-induced pulmonary fibrosis and Barasertib treatment therapy The generation of TGFα-overexpressing mice has been described previously (HARDIE et al. (2004) “Conditional expression of transforming growth factor-alpha in adult mouse lung causes pulmonary fibrosis” Am J Physiol Lung Cell Mol Physiol, Vol. 286, pp. L741-749, which is herein incorporated by reference in its entirety). Clara cell-specific protein-rtTA^+/− (CCSP-rtTA) mice were crossed with heterozygous (TetO)7-cmv TGFα mice to produce bitransgenic CCSP/TGFα mice. To induce TGFα expression, the transgenic mice were fed with doxycycline (Dox)-containing chow (62.5 mg/kg) (MADALA et al. (2014) “Inhibition of the alphavbeta6 integrin leads to limited alteration of TGF-alpha-induced pulmonary fibrosis” Am J Physiol Lung Cell Mol Physiol, Vol. 306, pp. L726-735, which is herein incorporated by reference in its entirety). They were housed under specific pathogen-free conditions and handled in accordance with protocols approved by the Institutional Animal Care and Use Committee of the Cincinnati Children's Hospital Research Foundation. Barasertib (Selleckchem, Houston, Tex.) was prepared in fresh vehicle (5% DMSO and 50% PEG in PBS) every day before treatment. […]

Structure (SMILES) | effect on mortality [1] | effect on respiratory symptoms [1] | fibroproliferation (Ki67 immunostaining of lung sections) (TGFα mice; Dox two weeks, then barasertib 25 or 50 mg/kg QD or nintedanib 60 mg/kg QD for 5 days, data not shown) | expression of ECM genes (Co11α, FN1; RT-PCR) (TGFα mice; barasertib 25 or 50 mg/kg QD or nintedanib 60 mg/kg QD i.p., FIG. 14)
Cc1ccc(=O)n(-c2ccccc2)c1 [pirfenidone] | neither pirfenidone nor nintedanib had any effect | no effect |  | 
COC(=O)c1ccc2c(c1)NC(=O)/C2=C(\Nc1ccc(N(C)C(=O)CN2CCN(C)CC2)cc1)c1ccccc1 [nintedanib] | neither pirfenidone nor nintedanib had any effect |  | reduction in fibroproliferation | attenuated
